Reference: patent US11198869B2, “Angelman syndrome antisense treatment” (The Texas A&M University System, priority 2017, dated 2021)

What was measured:
Type in all cases: cell-based, human
SNORD115 snoRNAs = assay: RNA-sequencing of Angelman syndrome iPSC neurons: SNORD115 snoRNAs; settings: 30 μM; six days post-treatment; RNA-seq
Procedure: (§1) RNA was isolated using Qiagen RNAeasy Plus (74136, Qiagen, Hilden, Germany). RNA concentration was determined using Qubit Fluorometric Quantitation (Thermo Fisher Scientific) and RNA quality was assessed using a 4200 Agilent TapeStation (Agilent, Santa Clara, Calif.). RNA-sequencing libraries were generated using the Illumina TruSeq Stranded Total RNA kit (20020597, Illumina, Inc., San Diego, Calif.) according to the manufacturer's protocol. 75 base-pair paired-end sequencing was performed using a NextSeq 500 (IIlumina, San Diego, Calif.) at the Texas A&M Institute for Genome Sciences and Society Genomics core. Raw sequencing reads were processed using CASAVA. The resulting FASTQ sequences were examined using FASTQC. […]
(§2) To determine whether ASO-4.4.PS.L and ASO-6.1.PO-1.O affect the levels of RNA transcripts encoded by the PWS polycistronic transcript, RNA-sequencing was performed on AS iPS cells treated with each ASO and the steady state RNA levels of SNURF, SNRPN, the SNORD116 host-gene transcript (SNHG116), the SNORD116 snoRNAs, IPW, the SNORD115 host-gene transcript (SNHG115), the SNORD115 snoRNAs, and UBE3A-AS were quantified. UBE3A steady state RNA levels were also measured. […]

[1] = tested on: SNORD116 host-gene transcript (SNHG116); assay: RNA-sequencing of Angelman syndrome iPSC neurons: SNHG116; settings: 30 μM; six days post-treatment; RNA-seq
Procedure: as §1, §2

UBE3A = UBE3A steady state RNA (qRT-PCR) in glutamatergic iPSC-derived neurons; settings: 14 DIV to 20 DIV, 10-point dose curve
Procedure: ASO-4 and ASO-6.1 were also examined in glutamatergic iPSC-derived neurons. Glutamatergic iPSC-derived neurons were treated at 14 DIV with a 10-point ½ log dose response curve of ASO-4 and ASO-6.1 [1 nM, 3 nM, 10 nM, 30 nM, 100 nM, 300 nM, 1 μM, 3 μM, 10 μM, and 30 μM (n=3)]. At 20 DIV, the IC50 and Emax of each ASO was estimated as described above (FIG. 5E-F and Table 15).
GABAergic and glutamatergic induced pluripotent stem cell (iPSC) derived neural precursor cells (NRC-100-010-001 and GNC-301-030-001, Cellular Dynamics International, Madison Wis.) were differentiated into neurons according to the manufactures protocol. Briefly, neural precursor cells were thawed and resuspended in chemically defined medium and added to sterile-culture plates coated with poly-D-lysine and laminin. The medium was replaced 24 hr after plating and then one-half of the medium was replaced every 3-5 days afterwards. […]
The steady state RNA levels of target transcripts were measured using TaqMan quantitative reverse-transcription PCR (qRT-PCR) assays. […] Cycling conditions were 2 minutes at 50° C., 10 minutes at 95° C., and 40 cycles of 15 seconds at 95° C. and 1 minute at 60° C., with readings taken at the 60° C. step of every cycle. […] Data was retrieved and analyzed with the BIORAD CFX Maestro software (Bio-Rad Laboratories). […]

| Substance | Difference, SNORD115 RNA level relative to vehicle (SNORD115 snoRNAs) | Difference, SNHG116 RNA level relative to vehicle [1] | effect on UBE3A RNA levels (in words) (UBE3A) |
| --- | --- | --- | --- |
| C^O*U^O*G^O*G^O-t*g*t*c*a*a*c*a*a*g-C^O*C^O*A^O*A^o [ASO-6.1.PO-1.O] | 0.24 | −0.07 |  |
| U^O*A^O*G^O*A^O*A^O*t*g*g*c*a*c*a*t*c*t*C^O*U^O*U^O*G^O*G^O [ASO-4] |  |  | increased UBE3A RNA levels in a dose dependent manner |
| A^L*G^L*A^L*a*t*g*g*c*a*c*a*t*c*t*5mC^L*T^L*T^L*G^L (NNNATGGCACATCTNNNN; LNA gapmer, PS, 5-methylcytosine, chemistry not fully specified) [ASO-4.4.PS.L] | −0.26 | −0.24 |  |
| C^O*U^O*G^O*G^O*t*g*t*c*a*a*c*a*a*g*C^O*C^O*A^O*A^O [ASO-6.1] |  |  | increased UBE3A RNA levels in a dose dependent manner |
